Experimental data reported in PMC4337798 (Biochimica et biophysica acta, 2010).

Legend:
[1] = target: T1, gastric H,K-ATPase (HKα1) (Mus musculus, UniProt Q64436); assay: K-ATPase activity dose response in gastric membrane vesicles; type: cell-based
[2] = target: T1, gastric H,K-ATPase (HKα1); assay: as above; type: cell-based; conditions: read-out: % inhibition at 100 μM

T1 sequence (Q64436 whole entry): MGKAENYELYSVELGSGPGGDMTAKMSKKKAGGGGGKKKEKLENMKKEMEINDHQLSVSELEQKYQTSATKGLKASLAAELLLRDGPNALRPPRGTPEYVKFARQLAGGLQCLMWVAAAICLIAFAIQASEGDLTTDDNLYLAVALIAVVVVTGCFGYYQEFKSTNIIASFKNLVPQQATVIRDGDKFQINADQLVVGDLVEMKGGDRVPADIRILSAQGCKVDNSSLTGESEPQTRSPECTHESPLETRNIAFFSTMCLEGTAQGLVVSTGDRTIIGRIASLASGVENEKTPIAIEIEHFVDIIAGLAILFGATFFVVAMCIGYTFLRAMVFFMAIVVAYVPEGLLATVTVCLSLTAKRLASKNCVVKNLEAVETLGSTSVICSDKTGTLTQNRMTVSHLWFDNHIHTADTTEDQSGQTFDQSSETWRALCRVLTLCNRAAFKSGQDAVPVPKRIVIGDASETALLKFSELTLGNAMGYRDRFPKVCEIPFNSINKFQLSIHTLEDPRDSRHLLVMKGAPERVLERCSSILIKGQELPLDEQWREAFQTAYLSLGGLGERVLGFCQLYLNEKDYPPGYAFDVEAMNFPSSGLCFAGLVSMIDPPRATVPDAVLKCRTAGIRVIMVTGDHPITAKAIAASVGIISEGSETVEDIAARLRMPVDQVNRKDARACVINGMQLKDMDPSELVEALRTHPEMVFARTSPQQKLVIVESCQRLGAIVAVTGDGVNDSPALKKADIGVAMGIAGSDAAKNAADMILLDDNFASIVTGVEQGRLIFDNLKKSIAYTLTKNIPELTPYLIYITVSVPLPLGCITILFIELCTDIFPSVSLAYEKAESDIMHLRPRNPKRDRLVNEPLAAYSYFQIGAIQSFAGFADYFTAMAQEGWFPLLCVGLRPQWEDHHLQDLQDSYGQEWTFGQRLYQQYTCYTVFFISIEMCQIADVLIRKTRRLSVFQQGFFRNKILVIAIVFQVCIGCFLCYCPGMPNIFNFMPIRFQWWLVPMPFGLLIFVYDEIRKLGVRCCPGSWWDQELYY
T1 sequence (P50992 whole entry partner): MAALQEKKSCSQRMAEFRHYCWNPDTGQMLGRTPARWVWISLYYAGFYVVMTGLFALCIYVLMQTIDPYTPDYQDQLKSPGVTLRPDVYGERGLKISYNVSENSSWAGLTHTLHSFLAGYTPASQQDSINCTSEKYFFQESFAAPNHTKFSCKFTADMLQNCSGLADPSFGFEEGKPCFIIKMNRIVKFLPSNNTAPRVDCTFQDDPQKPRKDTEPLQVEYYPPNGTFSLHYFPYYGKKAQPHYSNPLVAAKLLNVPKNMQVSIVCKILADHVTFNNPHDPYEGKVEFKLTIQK

SMILES | K-ATPase activity dose response in gastric membrane vesicles [1] | inhibition at 100 µM [2] [%]
CCN(c1nc(N)c(C(=O)N=C(N)N)nc1Cl)C(C)C [EIPA, 5-N-ethyl-N-isopropylamiloride] | Amiloride derivatives benzamil and EIPA had similar inhibitory effects on the gastric K-ATPase activity | 
N=C(N)NC(=O)c1nc(Cl)c(N)nc1N [amiloride] |  | ~65
NC(=NCc1ccccc1)NC(=O)c1nc(Cl)c(N)nc1N [benzamil] | Amiloride derivatives benzamil and EIPA had similar inhibitory effects on the gastric K-ATPase activity | 
